Experiments:
MBNL2 exon 7 = assay: RT-PCR alternative splicing assay, MBNL2 exon 7; format: cell-based, human; settings: DM1 myoblasts
Procedure: Human myoblasts were obtained from the Myosix institute associated with the Association Frangaise contre les Myopathies (AFM). Five primary myoblast lines were obtained as controls, and one line from a DM1 patient with a 3.8 Kb CTG triplet amplification corresponding to approximately 1250 CTG repeats. The human myoblasts are cultivated in HAM-F10 media (SIGMA N6635) with 15% FBS, 1% chick embryo extract, and 390 ng/ml of dexamethasone. One day before adding compounds, 2×10^5 cells were plated in 100 mm plates (for CUGBP1 western blot or RT-PCR alternative splicing assay) or 2×10^4 cells/well are seeded in 12-well plates containing 12 mm round glass coverslips (for FISH to detect RNA foci). […]
For Western blots, CUGBP1 was detected with the 3B1-3D11 monoclonal antibody (mAb) (SIGMA C5112) and GAPDH was detected with the 6C5 mAb (Millipore MAB374). The enhanced chemiluminescence signal (ECL) was acquired and quantified with the ChemiDoc™ MP imaging system (Bio-Rad). […] The alternative splicing of the hnRNPA2/B1 transcript was detected with the primers 5′-[…]-3′ (SEQ ID NO:7) and 5′-[…]-3′ (SEQ ID NO:8). PCR was performed with Taq using standard conditions but the number of amplification cycles was optimized to be in the quantitative range for each gene. […]

Normal or DM1 myoblasts = assay: Cytotoxicity assay (Hoescht 33342 / propidium iodide, High Content Screening microscope); format: cell-based, human; settings: for cellular toxicity: 7 days (FIG. 10)
Procedure: The cellular toxicity of compounds 15 and 32, and their analogs was also measured using a validated cytotoxicity assay. Normal or DM1 myoblasts were treated with 20 μM of compound or DMSO. The ratio of viable cells was measured with a High Content Screening microscope in live cells treated with Hoescht 33342 (labels all cells) and propidium iodide (labels dead cells). The total number of cells was counted and the number of dead cells was subtracted to obtain the number of viable cells, which is presented as a ratio (drug-treated versus DMSO-treated cells). The percentage of dead cells was also measured using propidium iodide.
The cellular toxicity of the compounds was also measured in a dose-response assay. In this assay, normal (M908) and patient (DM1) myoblasts were treated for 7 days with compound 32 or 196 at concentrations varying from 5 to 60 μM. Cell number and cell death was quantified by High Content Screening microscope, as specified above. […] Indeed, the ratio of viable cells at 20 μM of compound 15 is 0.22 (FIG. 10), while for compound 196, an analogue of compound 15, it is above 1 at the same concentration (FIG. 14C).

Compound | inclusion of MBNL2 exon 7 (MBNL2 exon 7; 20 μM, 7 days, from 40% (FIG. 8D)) [%] | cellular toxicity (Normal or DM1 myoblasts; 20 μM) | ratio of viable cells (drug-treated versus DMSO-treated) (Normal or DM1 myoblasts; 20 μM, 7 days (FIG. 10, FIG. 14C)) | dose-response effect on splicing of MBNL2 mRNA (MBNL2 exon 7; 5 to 60 μM, 7 days (FIG. 12A)) | main phenotype at higher concentrations (Normal or DM1 myoblasts; normal (M908) and DM1 myoblasts, 7 days, 5 to 60 μM) | cytotoxicity in dose-response assay (Normal or DM1 myoblasts; normal (M908) and DM1 myoblasts, 7 days, concentration of 20 μM and below (FIGS. 14A-D))
CCCN(CCC)S(=O)(=O)c1ccc(NS(=O)(=O)Cc2ccccc2)cc1 [Compound 15] | 25 | some toxicity | 0.22 |  |  | 
CCCc1c(C(=O)N(Cc2ccccc2)Cc2cccs2)cnn1-c1ccccc1 [Compound 32] |  | little toxicity |  | clear dose-response effect | cytostatic effect | little cytotoxicity
